Test results published in patent US10208020B2, “Substituted amino triazoles useful as human chitinase inhibitors” (OncoArendi Therapeutics S.A., priority 2015, dated 2019).

Legend:
recombinant human CHIT1 = recombinant human CHIT1 (Homo sapiens (Human), UniProt Q13231); assay: Human CHIT1 activity assay; type: biochemical; conditions: citrate buffer pH 5.2, 37° C., 60 minutes; 4-methylumbelliferyl β-D-N,N′,N″-triacetylchitotriose substrate; read-out: Activity on hCHIT1, IC50
recombinant human AMCase = recombinant human AMCase (Homo sapiens (Human), UniProt Q9BZP6); assay: Human AMCase activity assay; type: biochemical; conditions: citrate buffer pH 5.2, 37° C., 60 minutes; 4-methylumbelliferyl B-D-N,N′-diacetylchitobioside substrate; read-out: Activity on hAMCase, IC50
Chain of recombinant human AMCase (Q9BZP6 22-476): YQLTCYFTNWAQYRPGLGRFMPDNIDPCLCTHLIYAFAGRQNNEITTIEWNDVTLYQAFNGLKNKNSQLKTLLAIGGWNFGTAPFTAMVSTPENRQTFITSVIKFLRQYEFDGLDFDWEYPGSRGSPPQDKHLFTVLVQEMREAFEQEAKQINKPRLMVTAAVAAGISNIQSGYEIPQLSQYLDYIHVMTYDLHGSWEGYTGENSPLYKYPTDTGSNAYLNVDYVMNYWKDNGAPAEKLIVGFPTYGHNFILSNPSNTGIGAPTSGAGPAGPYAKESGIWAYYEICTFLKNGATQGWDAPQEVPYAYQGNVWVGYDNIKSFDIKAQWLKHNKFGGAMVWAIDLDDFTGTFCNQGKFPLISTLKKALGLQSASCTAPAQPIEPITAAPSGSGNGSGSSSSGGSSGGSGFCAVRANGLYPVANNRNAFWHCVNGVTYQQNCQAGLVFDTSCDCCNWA

Chain of recombinant human CHIT1 (Q13231 22-466): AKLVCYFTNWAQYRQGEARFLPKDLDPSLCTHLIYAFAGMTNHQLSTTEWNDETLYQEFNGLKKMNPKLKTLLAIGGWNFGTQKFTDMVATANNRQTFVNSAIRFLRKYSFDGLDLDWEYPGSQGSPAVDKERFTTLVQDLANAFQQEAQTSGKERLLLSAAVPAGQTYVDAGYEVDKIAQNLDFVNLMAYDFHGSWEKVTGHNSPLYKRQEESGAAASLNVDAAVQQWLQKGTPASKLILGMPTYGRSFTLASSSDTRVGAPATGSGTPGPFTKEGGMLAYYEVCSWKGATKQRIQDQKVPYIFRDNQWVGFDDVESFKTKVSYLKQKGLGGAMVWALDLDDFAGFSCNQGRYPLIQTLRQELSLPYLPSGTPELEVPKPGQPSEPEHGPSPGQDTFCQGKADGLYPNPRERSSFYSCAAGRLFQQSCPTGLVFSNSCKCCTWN

Structure (SMILES)	IC50 (recombinant human CHIT1) [nM]	IC50 (recombinant human AMCase) [nM]
C[C@H]1CN(C2CCN(c3nnc(N)[nH]3)CC2)[C@@H](Cc2ccc(Cl)cc2)C(C)(C)O1 [Example 53, 5-(4-((3S,6S)-3-(4-chlorobenzyl)-2,2,6-trimethylmorpholino)piperidin-1-yl)-4H-1,2,4-triazol-3-amine]	10000 to 100000	
C[C@H]1CN(C2CCN(c3nnc(N)[nH]3)CC2)[C@@H](Cc2ccc(Cl)cc2)CN1S(C)(=O)=O [Example 37, 5-(4-((2S,5S)-2-(4-chlorobenzyl)-5-methyl-4-(methylsulfonyl)piperazin-1-yl)piperidin-1-yl)-4H-1,2,4-triazol-3-amine]	10000 to 100000	
Nc1nnc(N2CCC(N3C[C@@H]4CCCN4C[C@@H]3Cc3ccc(Cl)cc3)CC2)[nH]1 [Example 49, 5-(4-((3S,8aS)-3-(4-chlorobenzyl)hexahydropyrrolo[1,2-a]pyrazin-2(1H)-yl)piperidin-1-yl)-4H-1,2,4-triazol-3-amine]	1000 to 10000	< 100
C[C@H]1CN(C2CCN(c3nnc(N)[nH]3)CC2)[C@@H](Cc2ccc(Cl)cc2)CN1CC(=O)O [Example 41, 2-((2S,5S)-4-(1-(5-amino-4H-1,2,4-triazol-3-yl)piperidin-4-yl)-5-(4-chlorobenzyl)-2-methylpiperazin-1-yl)acetic acid]	100 to 1000	< 100
COC(=O)N1C[C@H](Cc2ccc(Cl)cc2)N(C2CCN(c3nnc(N)[nH]3)CC2)C[C@@H]1C [Example 39, methyl (2S,5S)-4-(1-(5-amino-4H-1,2,4-triazol-3-yl)piperidin-4-yl)-5-(4-chlorobenzyl)-2-methylpiperazine-1-carboxylate]	10000 to 100000	
Cc1ccc(S(=O)(=O)N2CCN(C3CCN(c4nnc(N)[nH]4)CC3)[C@@H](Cc3ccc(Cl)cc3)C2)cc1 [Example 35, (S)-5-(4-(2-(4-chlorobenzyl)-4-tosylpiperazin-1-yl)piperidin-1-yl)-4H-1,2,4-triazol-3-amine]	10000 to 100000	
CC1(C(=O)O)CC[C@H](Cc2ccc(Cl)cc2)N(C2CCN(c3nnc(N)[nH]3)CC2)C1 (stereo partly drawn) [Example 18, (6R)-1′-(5-amino-4H-1,2,4-triazol-3-yl)-6-(4-chlorobenzyl)-3-methyl-[1,4′-bipiperidine]-3-carboxylic acid]	1000 to 10000	
CCOC[C@H]1CN(C2CCN(c3nnc(N)[nH]3)CC2)[C@@H](Cc2ccc(Cl)cc2)CO1 [Example 11, 5-(4-((2R,5S)-5-(4-chlorobenzyl)-2-(ethoxymethyl)morpholino)piperidin-1-yl)-4H-1,2,4-triazol-3-amine]		< 100
COC(=O)CN1C[C@H](Cc2ccc(Cl)cc2)N(C2CCN(c3nnc(N)[nH]3)CC2)C[C@@H]1C [Example 40, methyl 2-((2S,5S)-4-(1-(5-amino-4H-1,2,4-triazol-3-yl)piperidin-4-yl)-5-(4-chlorobenzyl)-2-methylpiperazin-1-yl)acetate]	100 to 1000	< 100

The remaining lines, values ahead:

IC50 (recombinant human CHIT1) [nM]	IC50 (recombinant human AMCase) [nM]	Structure (SMILES)
< 100		Nc1nnc(N2CCC(N3CCCC[C@@H]3Cc3ccc(Cl)cc3)CC2)[nH]1 [Example 15, (R)-5-(2-(4-chlorobenzyl)-[1,4′-bipiperidin]-1′-yl)-4H-1,2,4-triazol-3-amine]
100 to 1000		Nc1nnc(N2CCC(N3CC(C(=O)O)CC[C@@H]3Cc3ccc(Cl)cc3)CC2)[nH]1 (stereo partly drawn) [Example 17, (6R)-1′-(5-amino-4H-1,2,4-triazol-3-yl)-6-(4-chlorobenzyl)-[1,4′-bipiperidine]-3-carboxylic acid]
< 100		Nc1nnc(N2CCC(N3CCOC[C@@H]3Cc3ccc(Br)cc3)CC2)[nH]1 [Example 3, (S)-5-(4-(3-(4-bromobenzyl)morpholino)piperidin-1-yl)-4H-1,2,4-triazol-3-amine]
< 100	< 100	COC(C)(C)[C@H]1CN(C2CCN(c3nnc(N)[nH]3)CC2)[C@@H](Cc2ccc(Cl)cc2)CO1 [Example 14, 5-(4-((2R,5S)-5-(4-chlorobenzyl)-2-(2-methoxypropan-2-yl)morpholino)piperidin-1-yl)-4H-1,2,4-triazol-3-amine]
< 100		CCOC(=O)C1CC[C@H](Cc2ccc(Cl)cc2)N(C2CCN(c3nnc(N)[nH]3)CC2)C1 (stereo partly drawn) [Example 16, ethyl (6R)-1′-(5-amino-4H-1,2,4-triazol-3-yl)-6-(4-chlorobenzyl)-[1,4′-bipiperidine]-3-carboxylate]
< 100		Nc1nnc(N2CCC(N3CCOC[C@@H]3Cc3ccc(Cl)cc3)CC2)[nH]1 [Example 1, (S)-5-(4-(3-(4-chlorobenzyl)morpholino)piperidin-1-yl)-4H-1,2,4-triazol-3-amine]
